Columns and labels:
[1] = system: H128; assay: In vitro cytotoxicity assay, cisplatin sensitivity, H128; assay type: cell-based; settings: H128 cell line; read-out: IC50 concentration
[2] = system: H146; assay: In vitro cytotoxicity assay, cisplatin sensitivity, H146; assay type: cell-based; settings: H146 cell line; read-out: IC50 concentration
[3] = system: SCLC cell lines
[4] = system: SCLC cell lines; assay: Short-term MTS cytotoxicity assay in a panel of 9 SCLC cell lines; settings: for single-agent growth inhibition: veliparib 0-128 μmol/L, panel of 9 SCLC cell lines
[5] = system: H146 xenografts; assay type: in vivo
[6] = system: PARylated proteins; assay: Level of PARylated proteins in treated cells; assay type: cell-based; settings: veliparib 5 μmol/L
[7] = Veliparib pharmacokinetic and platinum adducts in tumor-bearing animals; assay type: in vivo
Experimental: Treated animals were sacrificed either at 1 or 24 h posttreatment by cervical dislocation. Plasma and tumor samples were collected and immediately stored in liquid phase nitrogen or at −70° C. until ready for analysis. Tissues were homogenized in approximately 1 mL of PBS. Veliparib concentrations in plasma and tissue homogenates were quantitated by LC-MS. Concentrations of total platinum in plasma and tissue homogenate were quantitated by atomic absorption spectrophotometry (AAS).

Structure (SMILES): N.N.[Cl][Pt][Cl] [cisplatin]
- IC50 [1]: 14.5 µM
- IC50 [2]: 5.2 µM

Structure (SMILES): COc1cc([C@@H]2c3cc4c(cc3[C@@H](O[C@@H]3O[C@@H]5CO[C@@H](C)O[C@H]5[C@H](O)[C@H]3O)[C@H]3COC(=O)[C@H]23)OCO4)cc(OC)c1O [etoposide]
- correlation (CC) of the magnitude of potentiation by veliparib and the sensitivity of the cell line to the cytotoxic agent (single agent IC50) [3]: 0.24

Structure (SMILES): C[C@]1(c2nc3c(C(N)=O)cccc3[nH]2)CCCN1 [veliparib]
- single-agent growth inhibition [4]: limited single-agent activity
- single-agent growth inhibition ([4]; listed as Veliparib): limited growth inhibition
- potentiated the activity of cisplatin, carboplatin, and etoposide ([4]; veliparib 5 μmol/L): not
- dose dependence of the potentiating effect of veliparib when combined with cisplatin ([5]; FIG. 2B): appeared dose dependent
- toxicity as indicated by the measured weight of the animals ([5]; veliparib combined with cisplatin): without additive toxicity
- level of PARylated proteins in cells [6]: significant reduction
- intratumoral platinum concentration ([7]; in the presence of veliparib): Increased intratumoral platinum concentration
- intratumoral veliparib concentration sufficient for in vivo potentiation of the antitumor effect of cisplatin ([7]; tumor): 2 µmol/L

Source: US20190091259A1, “Selective Chemotherapy Treatments and Diagnostic Methods Related Thereto” (Emory University, priority 2014, published 2019)
